In patent US20070099915A1, “INHIBITORS OF THE HIV INTEGRASE ENZYME” (PFIZER INC., priority 2005, published 2007):

Columns and labels:
[1] = target: T1, Full-length wild type HIV-1 integrase (SF1) (Human immunodeficiency virus type 1 group M subtype B, UniProt P04585); assay: Integrase strand-transfer scintillation proximity assay; type: biochemical; details: strand-transfer SPA, 246 nM integrase, 50 nM host DNA, 37° C., 50 min; read-out: IC50
T1 construct: made in house; host or cells: E. coli BL21 (DE3)

[2] = system: HIV-1 RF virus in CEM-SS cells; assay: HIV-1 cell protection assay (XTT dye reduction); type: cell-based; details: Human immunodeficiency virus 1, 144 h; RF strain of HIV-1, CEM-SS cells, XTT read-out after six days; read-out: EC50
Method in brief: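 Infected CEM-SS cultures incubated six days, then XTT with phenazine methosulfate added for 4 h; viability read as formazan absorbance at 450 nm. Formazan expressed as percent of uninfected, compound-free cells; CC50 from uninfected treated cells, therapeutic index as CC50/EC50.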

Structure (SMILES)	IC50 [1] [nM]	EC50 [2] [nM]
CN(Cc1cn(Cc2ccc(F)cc2)c2cnc3c(c12)CCN(O)C3=O)CC(F)(F)F [Example 73, 3-(4-fluorobenzyl)-7-hydroxy-1-{[methyl(2,2,2-trifluoroethyl)amino]methyl}-3,7,8,9-tetrahydro-6H-pyrrolo[2,3-c]-1,7-naphthyridin-6-one]	7	0.4
CCCOCCOCc1cn(Cc2ccc(F)cc2)c2cnc3c(c12)CCN(O)C3=O [Example 75, 3-(4-fluorobenzyl)-7-hydroxy-1-[(2-propoxyethoxy)methyl]-3,7,8,9-tetrahydro-6H-pyrrolo[2,3-c]-1,7-naphthyridin-6-one]	17	0.7
Cc1cccc(COCc2cn(Cc3ccc(F)cc3)c3cnc4c(c23)CCN(O)C4=O)n1 [Example 78, 3-(4-fluorobenzyl)-7-hydroxy-1-{[(6-methylpyridin-2-yl)methoxy]methyl}-3,7,8,9-tetrahydro-6H-pyrrolo[2,3-c]-1,7-naphthyridin-6-one]	11	0.6
O=C1c2ncc3c(c(COCC4CCC4)cn3Cc3ccc(F)cc3)c2CCN1O [Example 79, 1-[(cyclobutylmethoxy)methyl]-3-(4-fluorobenzyl)-7-hydroxy-3,7,8,9-tetrahydro-6H-pyrrolo[2,3-c]-1,7-naphthyridin-6-one]	10	1
CC(C)N(CCOCc1cn(Cc2ccc(F)cc2)c2cnc3c(c12)CCN(O)C3=O)C(C)C [Example 80, 1-{[2-(diisopropylamino)ethoxy]methyl}-3-(4-fluorobenzyl)-7-hydroxy-3,7,8,9-tetrahydro-6H-pyrrolo[2,3-c]-1,7-naphthyridin-6-one]	23	12
O=C1c2ncc3c(c(CNCC(F)F)cn3Cc3ccc(F)cc3)c2CCN1O [Example 81, 1-{[(2,2-difluoroethyl)amino]methyl}-3-(4-fluorobenzyl)-7-hydroxy-3,7,8,9-tetrahydro-6H-pyrrolo[2,3-c]-1,7-naphthyridin-6-one]	8	0.32
CCCCOCCOCc1cn(Cc2ccc(F)cc2)c2cnc3c(=O)n(O)ccc3c12 [Example 82, 1-[(2-butoxyethoxy)methyl]-3-(4-fluorobenzyl)-7-hydroxy-3,7-dihydro-6H-pyrrolo[2,3-c]-1,7-naphthyridin-6-one]	10	0.37
N#Cc1ccccc1Cn1ccc2c3c(ncc21)C(=O)N(O)CC3 [Example 84, 2-[(7-hydroxy-6-oxo-6,7,8,9-tetrahydro-3H-pyrrolo[2,3-c]-1,7-naphthyridin-3-yl)methyl]benzonitrile]	125	32
N#Cc1cccc(Cn2ccc3c4c(ncc32)C(=O)N(O)CC4)c1 [Example 85, 3-[(7-hydroxy-6-oxo-6,7,8,9-tetrahydro-3H-pyrrolo[2,3c]1,7-naphthyridin-3-yl)methyl]benzonitrile]	558	460
N#Cc1ccc(Cn2ccc3c4c(ncc32)C(=O)N(O)CC4)cc1 [Example 86, 4-[(7-hydroxy-6-oxo-6,7,8,9-tetrahydro-3H-pyrrolo[2,3-c]-1,7-naphthyridin-3-yl)methyl]benzonitrile]	108	27
O=C1c2ncc3c(ccn3Cc3ccccn3)c2CCN1O [Example 87, 7-hydroxy-3-(pyridin-2-ylmethyl)-3,7,8,9-tetrahydro-6H-pyrrolo[2,3-c]-1,7-naphthyridin-6-one]	89	35
N#Cc1cc(Cn2ccc3c4c(ncc32)C(=O)N(O)CC4)ccc1F [Example 88, 2-fluoro-5-[(7-hydroxy-6-oxo-6,7,8,9-tetrahydro-3H-pyrrolo[2,3-c]-1,7-naphthyridin-3-yl)methyl]benzonitrile]	9	0.45
O=c1c2ncc3c(c(COCC4CCC4)cn3Cc3ccc(F)cc3)c2ccn1O [Example 90, 1-[(cyclobutylmethoxy)methyl]-3-(4-fluorobenzyl)-7-hydroxy-3,7-dihydro-6H-pyrrolo[23-c]-17-naphthyridin-6-one]	59	14
O=c1c2ncc3c(c(COCCOCc4ccccc4)cn3Cc3ccc(F)cc3)c2ccn1O [Example 92, 1-{[2-(benzyloxy)ethoxy]methyl}-3-(4-fluorobenzyl)-7-hydroxy-3,7-dihydro-6H-pyrrolo[2,3-c]-1,7-naphthyridin-6-one]	3	10
COCCCc1cn(Cc2ccc(F)cc2)c2cnc3c(c12)CCN(O)C3=O [Example 94, 3-(4-fluorobenzyl)-7-hydroxy-1-(3-methoxypropyl)-3,7,8,9-tetrahydro-6H-pyrrolo[2,3-c]-1,7-naphthyridin-6-one]	12	0.25
Cc1cc2c(ncc3c2c(CN2CCN(C)CC2)cn3Cc2ccc(F)cc2)c(=O)n1O [Example 95, 3-(4-fluorobenzyl)-7-hydroxy-8-methyl-1-[(4-methylpiperazin-1-yl)methyl]3,7-dihydro-6H-pyrrolo[2,3-c]-1,7-naphthyridin-6-one]	14	0.45
Cc1cc2c(ncc3c2c(CN2CCN(C)C(=O)C2)cn3Cc2ccc(F)cc2)c(=O)n1O [Example 96, 3-(4-fluorobenzyl)-7-hydroxy-8-methyl-1-[(4-methyl-3-oxopiperazin-1-yl)methyl]-3,7-dihydro-6H-pyrrolo[2,3-c]-1,7-naphthyridin-6-one]	10	5
CCCN(CCO)Cc1cn(Cc2ccc(F)cc2)c2cnc3c(=O)n(O)c(C)cc3c12 [Example 97, 3-(4-fluorobenzyl)-7-hydroxy-1-{[(2-hydroxyethyl)(propyl)amino]methyl}-8-methyl-3,7-dihydro-6H-pyrrolo[2,3-c]-1,7-naphthyridin-6-one]	17	0.69
O=C1c2ncc3c(c(CN4CCCCCC4)cn3Cc3ccc(F)cc3)c2CCN1O [Example 98, 1-(azepan-1-ylmethyl)-3-(4-fluorobenzyl)-7-hydroxy-3,7,8,9-tetrahydro-6H-pyrrolo[2,3-c]-1,7-naphthyridin-6-one]	38	13
CC(=O)C1CCN(Cc2cn(Cc3ccc(F)cc3)c3cnc4c(c23)CCN(O)C4=O)CC1 [Example 99, 1-[(4-acetylpiperidin-1-yl)methyl]-3-(4-fluorobenzyl)-7-hydroxy-3,7,8,9-tetrahydro-6H-pyrrolo[2,3-c]-1,7-naphthyridin-6-one]	22	5
COC1CCN(Cc2cn(Cc3ccc(F)cc3)c3cnc4c(c23)CCN(O)C4=O)CC1 [Example 100, 3-(4-fluorobenzyl)-7-hydroxy-1-[(4-methoxypiperidin-1-yl)methyl]-3,7,8,9-tetrahydro-6H-pyrrolo[2,3-c]-1,7-naphthyridin-6-one]	21	0.7
Cc1cc2c(ncc3c2c(CN2CCCCC2)cn3Cc2ccc(F)cc2)c(=O)n1O [Example 101, 3-(4-fluorobenzyl)-7-hydroxy-8-methyl-1-(piperidin-1-ylmethyl)-3,7-dihydro-6H-pyrrolo[2,3-c]-1,7-naphthyridin-6-one]	14	0.46
COCCN(C)Cc1cn(Cc2ccc(F)cc2)c2cnc3c(=O)n(O)c(C)cc3c12 [Example 102, 3-(4-fluorobenzyl)-7-hydroxy-1-{[(2-methoxyethyl)(methyl)amino]methyl}-8-methyl-3,7-dihydro-6H-pyrrolo[2,3-c]-1,7-naphthyridin-6-one]	13	0.25
O=C1c2ncc3c(c(CCN4CCCC4)cn3Cc3ccc(F)cc3)c2CCN1O [Example 103, 3-(4-fluorobenzyl)-7-hydroxy-1-(2-(pyrrolidin-1-yl)ethyl)-8,9-dihydro-3H-pyrrolo[2,3-c][1,7]naphthyridin-6(7H)-one]	24	18
CN(C)CCc1cn(Cc2ccc(F)cc2)c2cnc3c(c12)CCN(O)C3=O [Example 104, 3-(4-fluorobenzyl)-1-(2-(dimethylamino)ethyl)-7-hydroxy-8,9-dihydro-3H-pyrrolo[2,3-c][1,7]naphthyridin-6(7H)-one]	24	32
CN(CCCc1cn(Cc2ccc(F)cc2)c2cnc3c(c12)CCN(O)C3=O)CC1CCOCC1 [Example 105, 3-(4-fluorobenzyl)-7-hydroxy-1-{3-[methyl(tetrahydro-2H-pyran-4-ylmethyl)amino]propyl}-3,7,8,9-tetrahydro-6H-pyrrolo[2,3-c]-1,7-naphthyridin-6-one]	24	16
COCCOCCCc1cn(Cc2ccc(F)cc2)c2cnc3c(c12)CCN(O)C3=O [Example 106, 3-(4-fluorobenzyl)-7-hydroxy-1-[3-(2-methoxyethoxy)propyl]-3,7,8,9-tetrahydro-6H-pyrrolo[2,3-c]-1,7-naphthyridin-6-one]	14	0.95
CN(CCc1cn(Cc2ccc(F)cc2)c2cnc3c(c12)CCN(O)C3=O)C1CCOCC1 [Example 108, 3-(4-fluorobenzyl)-7-hydroxy-1-(2-(methyl(tetrahydro-2H-pyran-4-yl)amino)ethyl)-8,9-dihydro-3H-pyrrolo[2,3-c][1,7]naphthyridin-6(7H)-one]	21	16
O=C1c2ncc3c(c(CCN4CCC(F)(F)C4)cn3Cc3ccc(F)cc3)c2CCN1O [Example 109, 3-(4-fluorobenzyl)-1-(2-(3,3-difluoropyrrolidin-1-yl)ethyl)-7-hydroxy-8,9-dihydro-3H-pyrrolo[2,3-c][1,7]naphthyridin-6(7H)-one]	14	1
O=C1c2ncc3c(c(CCO)cn3Cc3ccc(F)cc3)c2CCN1O [Example 110, 3-(4-fluorobenzyl)-7-hydro-1-(2-hydroxyethyl)-8,9-dihydro-3H-pyrrolo[2,3-c][1,7]naphthyridin-6(7H)-one]	11	5
